Measurements taken from US20220062240A1, “METHODS OF TREATING CANCER USING A CLK INHIBITOR” (BioSplice Therapeutics, Inc., priority 2018, published 2022).
Read-outs that look alike come from different tables or passages of the source.

Assays:
[1] = system: colorectal cancer (6 cell lines); assay: CellTiter-Glo Viability Assay, colorectal cancer; type: cell-based; details: Homo sapiens, inhibition of cancer cell proliferation
[2] = system: lung cancer (4 cell lines); assay: CellTiter-Glo Viability Assay, lung cancer; type: cell-based; details: Homo sapiens, inhibition of cancer cell proliferation
[3] = system: all 50 cell lines; assay: CellTiter-Glo Viability Assay, average across all cell lines; type: cell-based; details: Homo sapiens; across all 50 cell lines; read-out: average EC50 for inhibition of cancer cell proliferation
Method in brief: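 Cells were plated at 300-3,000 per well in their own media, then treated with compound in duplicate, with DMSO wells as controls. After four days at 37° C and 5% CO2, CellTiter-Glo was added, and luminescence was read. EC50s were fitted.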

[4] = system: liver cancer (3 cell lines); assay: CellTiter-Glo Viability Assay, liver cancer; type: cell-based; details: Homo sapiens, inhibition of cancer cell proliferation
[5] = system: pancreatic cancer (8 cell lines); assay: CellTiter-Glo Viability Assay, pancreatic cancer; type: cell-based; details: Homo sapiens, inhibition of cancer cell proliferation
[6] = system: prostate cancer (5 cell lines); assay: CellTiter-Glo Viability Assay, prostate cancer; type: cell-based; details: Homo sapiens
[7] = system: T47D; assay: CellTiter-Glo Viability Assay, breast cancer; type: cell-based; details: Homo sapiens, 96 h, breast cancer, four days, read-out: EC50
[8] = system: MCF7; assay: CellTiter-Glo Viability Assay, breast cancer; type: cell-based; details: Homo sapiens, 96 h; MCF7, breast cancer, four days; read-out: EC50
[9] = system: DU4475; assay: CellTiter-Glo Viability Assay, breast cancer; type: cell-based; details: Homo sapiens, DU-4475, 96 h; DU4475, breast cancer, four days; read-out: EC50
[10] = system: MDA-MB-231-Luc; assay: CellTiter-Glo Viability Assay, breast cancer; type: cell-based; details: Homo sapiens, 96 h; MDA-MB-231-Luc, breast cancer, four days; read-out: EC50
[11] = system: ZR-75-1; assay: CellTiter-Glo Viability Assay, breast cancer; type: cell-based; details: Homo sapiens, 96 h; ZR-75-1, breast cancer, four days; read-out: EC50
[12] = system: HCC1599; assay: CellTiter-Glo Viability Assay, breast cancer; type: cell-based; details: Homo sapiens, 96 h; HCC1599, breast cancer, four days; read-out: EC50
[13] = system: BT-549; assay: CellTiter-Glo Viability Assay, breast cancer; type: cell-based; details: Homo sapiens, 96 h; BT-549, breast cancer, four days; read-out: EC50
[14] = system: CAMA1; assay: CellTiter-Glo Viability Assay, breast cancer; type: cell-based; details: Homo sapiens, CAMA-1, 96 h; CAMA1, breast cancer, four days; read-out: EC50
[15] = system: haematopoietic & lymphoid tumors (13 cell lines); assay: CellTiter-Glo Viability Assay, haematopoietic & lymphoid tumors; type: cell-based; details: Homo sapiens, inhibition of cancer cell proliferation
[16] = system: ovarian cancer (4 cell lines); assay: CellTiter-Glo Viability Assay, ovarian cancer; type: cell-based; details: Homo sapiens, inhibition of cancer cell proliferation
[17] = biological target: T1, CLK2 (Homo sapiens, UniProt P49760); assay: CLK2 kinase activity assay (Z-lyte, Ser/Thr 6 peptide); type: biochemical; details: recombinant CLK2 kinase, ATP 60 μM; read-out: EC50
T1 construct: purchased Thermo Fisher (Life Technologies), Z'-LYTE Kinase Assay Kits
Experimental: All reactions were performed in duplicate.

[18] = biological target: CLK3 (Homo sapiens, UniProt P49761); assay: CLK3 kinase activity assay (Z-lyte, Ser/Thr 18 peptide)
Sequence of CLK3 (P49761 whole entry): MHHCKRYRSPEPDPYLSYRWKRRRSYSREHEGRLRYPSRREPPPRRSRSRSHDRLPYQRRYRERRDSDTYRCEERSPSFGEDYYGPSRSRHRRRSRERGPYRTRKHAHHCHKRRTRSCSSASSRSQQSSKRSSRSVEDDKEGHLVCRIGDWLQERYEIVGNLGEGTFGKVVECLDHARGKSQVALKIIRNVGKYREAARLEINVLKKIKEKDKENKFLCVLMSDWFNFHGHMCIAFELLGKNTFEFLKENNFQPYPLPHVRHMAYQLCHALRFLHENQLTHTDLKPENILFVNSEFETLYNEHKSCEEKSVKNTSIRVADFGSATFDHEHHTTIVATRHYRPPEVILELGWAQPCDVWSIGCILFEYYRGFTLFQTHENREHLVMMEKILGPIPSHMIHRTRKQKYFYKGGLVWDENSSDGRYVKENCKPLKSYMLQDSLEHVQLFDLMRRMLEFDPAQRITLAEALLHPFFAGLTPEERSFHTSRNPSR

T1 sequence (P49760 whole entry): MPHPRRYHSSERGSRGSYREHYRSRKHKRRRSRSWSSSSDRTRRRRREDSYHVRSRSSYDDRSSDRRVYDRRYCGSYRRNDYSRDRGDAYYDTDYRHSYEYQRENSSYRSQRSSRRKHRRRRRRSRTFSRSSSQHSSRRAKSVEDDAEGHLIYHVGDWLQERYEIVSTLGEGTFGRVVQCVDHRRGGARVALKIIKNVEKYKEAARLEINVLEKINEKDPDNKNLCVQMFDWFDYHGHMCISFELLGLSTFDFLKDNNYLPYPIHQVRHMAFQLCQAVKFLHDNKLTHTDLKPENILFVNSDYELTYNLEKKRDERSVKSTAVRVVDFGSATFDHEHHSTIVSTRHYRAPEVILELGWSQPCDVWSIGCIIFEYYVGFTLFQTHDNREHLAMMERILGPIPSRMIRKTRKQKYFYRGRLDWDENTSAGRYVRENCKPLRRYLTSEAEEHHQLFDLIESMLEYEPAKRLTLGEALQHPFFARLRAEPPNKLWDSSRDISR

CC(C)Nc1cncc(-c2ccc3cnc(NC(=O)c4cn(C5CCN(CCF)CC5)nn4)cc3c2)n1 [Compound 85]
EC50 ([1]; HCT-116, HCT116 cell line, read-out: Colorectal cancer, EC50 (μM) HCT116): 0.077 µM
EC50 ([1]; HT-29, HT29 cell line, read-out: Colorectal cancer, EC50 (μM) HT29): 0.198 µM
EC50 ([1]; SW-620, SW620 cell line, read-out: Colorectal cancer, EC50 (μM) SW620): 0.067 µM
EC50 ([1]; DLD-1 cell line, read-out: Colorectal cancer, EC50 (μM) DLD-1): 0.173 µM
EC50 ([1]; SW48 cell line, read-out: Colorectal cancer, EC50 (μM) SW48): 0.059 µM
EC50 ([1]; SW480 cell line, read-out: Colorectal cancer, EC50 (μM) SW480): 0.136 µM
EC50 ([2]; A-427, A427 cell line, read-out: Lung cancer, EC50 (μM) A427): 0.452 µM
EC50 ([2]; HCC78, HCC-78 cell line, read-out: Lung cancer, EC50 (μM) HCC-78): 0.64 µM
EC50 ([2]; NCI-H460 cell line, read-out: Lung cancer, EC50 (μM) NCI-H460): 0.564 µM
EC50 ([2]; NCI-H522 cell line, read-out: Lung cancer, EC50 (μM) NCI-H522): 0.412 µM
EC50 [3]: 880 nM
EC50 ([4]; SNU-398, SNU398 cell line, read-out: Liver cancer, EC50 SNU398): 96 nM
EC50 ([4]; HEPG2 cell line, read-out: Liver cancer, EC50 HEPG2): > 10000 nM
EC50 ([4]; PLC/PRF/5 cell line, read-out: Liver cancer, EC50 PLC/PRF/5): 350 nM
EC50 ([5]; BXPC-3, BxPC3 cell line, read-out: Pancreatic cancer, EC50 BxPC3): 527 nM
EC50 ([5]; CAPAN-1, Capan1 cell line, read-out: Pancreatic cancer, EC50 Capan1): 224 nM
EC50 ([5]; Capan-2, Capan2 cell line, read-out: Pancreatic cancer, EC50 Capan2): 295 nM
EC50 ([5]; MIA PaCa-2 cell line, read-out: Pancreatic cancer, EC50 MIA PaCa-2): 148 nM
EC50 ([5]; PANC 05.04 cell line, read-out: Pancreatic cancer, EC50 PANC 05.04): 419 nM
EC50 ([5]; PANC-1 cell line, read-out: Pancreatic cancer, EC50 PANC-1): 488 nM
EC50 ([5]; UPAFII cell line, read-out: Pancreatic cancer, EC50 UPAFII): 135 nM
EC50 ([6]; DU-145, read-out: Prostate cancer EC50 Du-145): 239 nM
EC50 ([6]; PC-3, PC3 cell line, inhibition of cancer cell proliferation, read-out: Prostate cancer EC50 PC3): 250 nM
EC50 ([6]; 22Rv1 cell line, inhibition of cancer cell proliferation, read-out: Prostate cancer EC50 22Rv1): 414 nM
EC50 ([6]; LNCap clone FGC cell line, inhibition of cancer cell proliferation, read-out: Prostate cancer EC50 LNCap clone FGC): 509 nM
EC50 ([6]; VCaP (Sigma) cell line, inhibition of cancer cell proliferation, read-out: Prostate cancer EC50 VCaP (Sigma)): 505 nM
EC50 [7]: 635 nM
EC50 [8]: 683 nM
EC50 [9]: 420 nM
EC50 [10]: > 10000 nM
EC50 [11]: 506 nM
EC50 [12]: 94 nM
EC50 [13]: 210 nM
EC50 [14]: 399 nM
EC50 ([15]; DND41, DND-41 cell line, read-out: Haematopoietic & Lymphoid tumors, EC50 (μM) DND-41): 0.207 µM
EC50 ([15]; MV4-11, MV-4-11 cell line, read-out: Haematopoietic & Lymphoid tumors, EC50 (μM) MV-4-11): 0.067 µM
EC50 ([15]; Rec1, REC-1 cell line, read-out: Haematopoietic & Lymphoid tumors, EC50 (μM) REC-1): 0.082 µM
EC50 ([15]; SU-DHL-4, SUDHL4 cell line, read-out: Haematopoietic & Lymphoid tumors, EC50 (μM) SUDHL4): 0.491 µM
EC50 ([15]; HL-60 cell line, read-out: Haematopoietic & Lymphoid tumors, EC50 (μM) HL-60): 0.252 µM
EC50 ([15]; JM1 cell line, read-out: Haematopoietic & Lymphoid tumors, EC50 (μM) JM1): 0.175 µM
EC50 ([15]; JURKAT, Clone E6-1 cell line, read-out: Haematopoietic & Lymphoid tumors, EC50 (μM) JURKAT, Clone E6-1): 0.466 µM
EC50 ([15]; JeKo-1 cell line, read-out: Haematopoietic & Lymphoid tumors, EC50 (μM) JeKo-1): 0.109 µM
EC50 ([15]; KASUMI-1 cell line, read-out: Haematopoietic & Lymphoid tumors, EC50 (μM) KASUMI-1): 0.209 µM
EC50 ([15]; Loucy cell line, read-out: Haematopoietic & Lymphoid tumors, EC50 (μM) Loucy): 0.241 µM
EC50 ([15]; MOLT-4 cell line, read-out: Haematopoietic & Lymphoid tumors, EC50 (μM) MOLT-4): 0.13 µM
EC50 ([15]; TF-1 cell line, read-out: Haematopoietic & Lymphoid tumors, EC50 (μM) TF-1): 0.226 µM
EC50 ([15]; TOLEDO cell line, read-out: Haematopoietic & Lymphoid tumors, EC50 (μM) TOLEDO): 0.122 µM
EC50 ([16]; PA-1, PA1 cell line, read-out: Ovarian cancer, EC50 (μM) PA1): > 10 µM
EC50 ([16]; TOV112D, TOV-112D cell line, read-out: Ovarian cancer, EC50 (μM) TOV-112D): 0.143 µM
EC50 ([16]; OV-90 cell line, read-out: Ovarian cancer, EC50 (μM) OV-90): 0.562 µM
EC50 ([16]; OVCAR-3 cell line, read-out: Ovarian cancer, EC50 (μM) OVCAR-3): 0.171 µM
EC50 [17]: 4 nM
EC50 [18]: 12 nM
